Source: patent publication US9290535B2, “Uridine-based gadolinium complex and MRI contrast agent including the same” (Korea University Researchand Business Foundation, priority 2011, dated 2016)
Values joined by “and” are separate entries in the source; they are usually repeats but may differ in a detail not shown here. Equal values may be shown once. Values belong to the compound of their own block, whether it stands above or below them.

Legend:
[1] = clinically used commercial T1 contrast agents, comparison values; cited from earlier work
[2] = Relaxivity measurements (r1, r2) in PBS solution; format: physicochemical; settings: for Relaxivity r1: PBS solution, 36° C.
Procedure: The relaxation efficiency of the newly synthesized amphiphilic MRI contrast agents according to the present invention was determined by measuring longitudinal relaxivity (r1) and transverse relaxivity (r2) at 20 MHZ (0.47 T) and 60 MHz (1.41 T) in phosphate buffered saline (PBS) solution at 36° C.

[3] = pH dependence of water 1H relaxivity; format: physicochemical
Procedure: The relaxivities of the non-aggregated complex LGd1 and the most aggregated complex LGd3 (FIG. 7, average diameter […]) were investigated at various pH values (3.5-11) at 60 MHz (1.41 T) and 36° C.
The pH dependence of water ^1H-NMR relaxivity r1 was obtained at 60 MHz and 36° C. The complexes LGd1 and LGd3 were dissolved in previously prepared stock solutions (StockOptions pH Screen, Hampton Research, USA) at pH 3.5-11.

[4] = Dynamic light scattering (DLS) of micelles; format: physicochemical
[5] = Stability against transmetallation by Zn2+ (time evolution of proton relaxation rate); format: physicochemical
Procedure: The stability of the gadolinium complex against various biologically active metal ions is very important in in vivo applications. Among them, only Zn^2+ can displace significant amounts of the Gd^3+ ion as concentration of Zn^2+ in blood is relatively high (55-125 μM/L). The stability of the complexes LGd1-4 against transmetallation by Zn^2+ was studied employing the method of others.
The time evolution of the ^1H longitudinal relaxivity (R1) of a 2.5 mM gadolinium complex with 2.5 mM ZnCl2 in PBS solution was measured. Stability of the amphiphilic complex LGd2 of the present invention was greater than that of the non-aggregated complex LGd1 (FIG. 13). After 70 h, the relaxivities were retained 30, 50, 21, and 12% for LGd1-4, respectively.

[6] = Contrast-enhanced dynamic MRI in mice (CNR in liver and blood); format: in vivo, Balb/C mice; settings: for Peak CNR in liver: i.v. injection, 4.7 T
Procedure: The whole-body pharmacokinetics of T1 contrast agents can be measured by dynamic 2D or 3D MR imaging.
5-Week-old male Balb/C mice (n=3; OrientBio, Korea) were used for contrast-enhanced dynamic MRI. MRI was performed by using a 4.7 T MRI system (BioSpec 47/40; Bruker, Germany) with a quadrature birdcage RF coil (35 mm inner diameter) for signal transmission and reception.
Bolus of the contrast agents (0.1 mmol Gd/kg) was injected via tail vein. During MRI acquisition, the animals were anesthetized using 1-1.25% of inhalational isoflurane with O2:N2O (3:7) mixture.
To quantitatively measure signal intensity in region-of-interests (ROIs) as contrast-noise ratio (CNR), a reference of water sample (1 g/l CuSO4 in 8:2 of D2O:H2O) in a cylindrical tube (5 mm diameter) was used.
Dynamic 2D T1-weighted images were acquired using a spin-echo (SE) pulse sequence with the following parameters: TE/TR=10/400 ms, number of average=4, matrix size=256×256, slice thickness=1 mm, field of view=30×30 mm^2 (in axial slice) or 50×30 mm^2 (in coronal slice), and scan time=6 min 50 s).
Dynamic 3D T1-weighted images were acquired using a fast low angle shot gradient echo (FLASH) pulse sequence with parameters of TE/TR=2.4/7.5 ms, number of average=4, flip angle=30°, field of view=30×30×20 mm^3, matrix size=256×256×128, and scan time=12 min 17 s.

[7] = Critical micelle concentration from 1/T1 versus concentration; format: physicochemical; settings: FIG. 10
Procedure: Longitudinal and transverse relaxivities, r1 and r2, were measured at 20 MHz (0.47 T) and 60 MHz (1.41 T) at 36° C. on NMR (mq20 and mq60, Bruker, Germany) and animal MRI (Biospec 47/40, Bruker, Germany) systems. T1 and T2 relaxation times were measured with inversion recovery and spin-echo pulse sequences, respectively. The critical micelle concentration (cmc) of the complex LGd3 was determined by measuring the proton relaxation rate 1/T1 as a function of complex LGd3 concentration.

[8] = target: T1, human serum albumin (HSA) (Homo sapiens, UniProt P02768); test: Interaction with human serum albumin (relaxivity with HSA, binding constant); settings: 36° C.
T1 construct: purchased Sigma (Bornem, Belgium) A3782
T1 sequence (P02768 25-609): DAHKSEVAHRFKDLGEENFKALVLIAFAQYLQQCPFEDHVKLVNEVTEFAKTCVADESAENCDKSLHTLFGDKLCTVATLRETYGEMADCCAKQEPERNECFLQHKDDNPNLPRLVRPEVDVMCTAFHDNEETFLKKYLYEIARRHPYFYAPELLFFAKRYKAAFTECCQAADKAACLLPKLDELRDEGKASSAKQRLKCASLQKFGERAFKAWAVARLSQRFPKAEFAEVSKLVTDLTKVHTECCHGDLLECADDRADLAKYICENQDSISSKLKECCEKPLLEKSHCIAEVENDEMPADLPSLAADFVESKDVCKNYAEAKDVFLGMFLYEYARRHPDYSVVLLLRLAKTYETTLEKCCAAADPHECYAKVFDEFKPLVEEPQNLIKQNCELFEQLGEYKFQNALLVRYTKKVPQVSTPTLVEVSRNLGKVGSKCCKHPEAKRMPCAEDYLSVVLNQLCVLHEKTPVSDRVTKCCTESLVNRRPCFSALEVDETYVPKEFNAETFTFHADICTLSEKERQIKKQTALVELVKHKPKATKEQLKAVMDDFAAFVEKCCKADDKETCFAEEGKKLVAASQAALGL
Description: It is well known that non-covalent interaction of the contrast agent with human serum albumin (HSA) increases its circulation time in blood and slows down tubling rate, leading to greater contrast enhancement for blood vessel imaging. In this example, effective interaction between the newly synthesized contrast agents (CAs) and human serum albumin (HSA) were investigated.
Human serum albumin (HSA; Product No. A3782) was purchased from Sigma (Bornem, Belgium) and was used without further purification. HSA binding experiment was performed with 50 μM of the complexes LGd1-5 in PBS solution depending on the concentration of HSA from 0 to 4 mM at 20 MHz and 36° C.
The increment of R1/R1^0 with increasing aliphatic chain length is: LGd2>LGd3>LGd4>LGd5.
Furthermore, to know the non-covalent binding strength between HSA and the complex, a binding constant (Ka) of (3.34±0.28)×10^3 M^−1 for the complex LGd3 was determined using the theoretical equation reported in the reference (D. T. Schuhle, J. Schatz, S. Laurent, L. V. Elst, R. N. Muller, M. C. A. Stuart, J. A. Peters, Chem. Eur. J. 2009, 15, 3290). The relaxivity for the non-aggregate form of LGd3 (r1^f) was measured to be 18.5 mM^−1s^−1 (below CMC=50 μM; FIG. 10), while for adduct LGd3.HSA (r1^c), 41.0 mM^−1s^−1 at 36° C. and 20 MHz (0.47 T) in PBS solution. […] As a result, the complex LGd3 of the present invention could be retained in vivo for a longer time.

Relaxivity r1 ([2]; 20 MHz (0.47 T)): 4.70 mM⁻¹ s⁻¹ | Relaxivity r1 ([2]; 60 MHz (1.41 T)): 3.81 mM⁻¹ s⁻¹
Structure (SMILES): CNC[C@H](O)[C@@H](O)[C@H](O)[C@H](O)CO.CNC[C@H](O)[C@@H](O)[C@H](O)[C@H](O)CO.O=C([O-])CN(CCN(CC(=O)[O-])CC(=O)O)CCN(CC(=O)[O-])CC(=O)O.[Gd+3] [Magnevist ®, Gd-DTPA, reference compound]
Relaxivity retained after transmetallation (commercial contrast agents) [1]: 50%

Relaxivity variation Δr1 between pH 6 and 7.5 ([3]; 60 MHz, 36° C.): ~2.9 | Relaxivity variation Δr1 from pH 8 to pH 11 ([3]; 60 MHz, 36° C.): ~10.3 | Relaxivity at pH 8 ([3]; pH 8, 60 MHz (1.41 T), 36° C.): about 24.5 mM^−1s^−1 | Relaxivity at pH 10.5 ([3]; pH 10.5): about 17.3 mM^−1s^−1 | Relaxivity at pH 11 ([3]; pH 11, 60 MHz (1.41 T), 36° C.): 14.2 mM^−1s^−1 | Average diameter (FIG. 7) as printed in nm ([4]; FIG. 7): 51.2 nm | DLS PDI of micelles at alkaline pH ([4]; FIG. 12, pH 10.5): 2.01 | DLS PDI of micelles ([4]; FIGS. 6 to 9): 1.46 | DLS average size of micelles ([4]; FIGS. 6 to 9, pH 7.4): 51.16 nm and 51.15 nm | Relaxivity r1 ([2]; 20 MHz (0.47 T)): 30.3 mM⁻¹ s⁻¹ and 30.30 mM⁻¹ s⁻¹ | Relaxivity r1 ([2]; 60 MHz (1.41 T)): 23.4 mM⁻¹ s⁻¹ and 23.40 mM⁻¹ s⁻¹ | Relaxivity increase compared to Magnevist/Omniscan (Gd-DTPA, Gd-DTPA-BMA) ([2]; PBS, 0.47 T and 1.41 T): 6 fold | Relaxivity retained after transmetallation ([5]; 2.5 mM complex with 2.5 mM ZnCl2 in PBS, after 70 h): 21% | y0 of fit y0+A×exp(−t/C1) of proton relaxation rate during transmetallation ([5]; Zn(II) ions, PBS, 20 MHz (0.47 T), 36° C., steady state in about 70 h): 0.21 | Time of bright contrast enhancement in gall bladder after injection ([6]; 0.1 mmol Gd/kg i.v., 2D MR images): 2 to 4 h | Critical micelle concentration (CMC) ([7]; 20 MHz, 36° C.): about 0.05 mM | Critical micelle concentration (CMC) [7]: 50 µM | Effective interaction with HSA (R1/R1^0) ([8]; 50 μM complex, HSA below 1.0 mM, 20 MHz): high | Relaxivity r1^a (with HSA) ([8]; 20 MHz (0.47 T), PBS solution with 0.65 mM HSA): 41.0 mM⁻¹ s⁻¹ and 41.00 mM⁻¹ s⁻¹ | Relaxivity of adduct with HSA (r1^c) ([8]; adduct LGd3.HSA, 20 MHz (0.47 T), PBS): 41.0 mM⁻¹ s⁻¹ | Relaxivity of the non-aggregate form (r1^f) ([8]; below CMC, 20 MHz (0.47 T), PBS): 18.5 mM⁻¹ s⁻¹ | Binding constant (Ka) with HSA ([8]; non-covalent binding, theoretical equation, 20 MHz, PBS): (3.34±0.28)×10^3 M^−1
Structure (SMILES): CCCCCCCCCC(=O)O[C@@H]1[C@H](OC(=O)CCCCCCCCC)[C@@H](CN(CCN(CC(=O)[O-])CC(=O)[O-])CCN(CC(=O)[O-])CC(=O)[O-])O[C@H]1n1ccc(=O)[nH]c1=O.[Gd+3] [LGd3]
Duration of hyperintense CNR in liver (delayed hepatobiliary phase) ([6]; 0.1 mmol Gd/kg i.v.): at least 11 h | Peak and plateau enhancement in liver parenchyma ([6]; 0.1 mmol Gd/kg i.v., CNR in liver from 1.67 to 4.0): about 240% | Liver parenchyma enhancement versus same dose of Gd-DTPA-BMA ([6]; 0.1 mmol Gd/kg, 3D dynamic images): more intense and prolonged enhancement | CNR in liver at 11 h above pre-value ([6]; 0.1 mmol Gd/kg, 11 h after injection): about 60% | T1-contrasted enhancement in liver parenchyma, caudal vena cava and kidney ([6]; 30 min after injection, 0.1 mmol Gd/kg): markedly seen | SI in liver compared with pre-injection value ([6]; 9 h after injection): still relatively high | Duration of plateau-like constant CNR in liver ([6]; after maximum at about 2 h post-injection): about 2 h | Peak CNR in liver [6]: 4.0

Relaxivity r1 ([2]; 20 MHz (0.47 T)): 4.41 mM⁻¹ s⁻¹ | Relaxivity r1 ([2]; 60 MHz (1.41 T)): 3.68 mM⁻¹ s⁻¹
Structure (SMILES): CNC(=O)CN(CCN(CCN(CC(=O)[O-])CC(=O)NC)CC(=O)[O-])CC(=O)[O-].[Gd+3] [Omniscan ®, Gd-DTPA-BMA, reference compound]
Relaxivity retained after transmetallation (commercial contrast agents) [1]: 10% | Peak CNR in liver [6]: about 2.8
